According to US12083196B2, “Personal cleansing compositions with surfactants for increased foam performance” (ECOLAB USA INC., priority 2020, dated 2024):

Assay: SITA Foam Analyzer foam decay
Format: physicochemical
Details: single surfactant, 1%, FIG. 2
Excerpt: The reagents used below include: • Alpha-Step® PC-48 is a C10-16 sodium methyl 2-sulfolaurate and disodium 2-sulfolaurate available from Stepan; • Stepan-Mild® L3 is a predominantly C12 reaction product of lauryl alcohol and lactic acid available from Stepan; • SLES is sodium laureth sulfate; • Cola® Teric is an amphoteric sultaine available from Colonial Chemical, Inc.; • Glucopon® […] is an alkyl polyglycoside available from BASF Corporation; • Suga® Nate is a sodium laurylglucosides hydrooxypropylsulfonate available from Colonial Chemicals, Inc; • Lathanol® LAL is a sodium lauryl sulfoacetate available from Stepan. […] To rename sample measurement files, right click on the open sample window, and click “save” to rename your sample file • 8) If an error occurs at any point with your sample, the measurement reading can be stopped by clicking the red square “Stop icon” or by pressing the large red button on the machine • 9) Organize the graph generated with the icons in the fourth section of the tool bar: create new plot, add/remove data from plot, change axis properties, and view properties. […] Right click to rename the plot, insert or remove the plot and display the foam buildup, foam decay, or both The foam decay time was also measured. […]

sodium laureth sulfate [SLES]
loss of foaming over 10 minutes: about 20 mL
